Type in all cases: cell-based, Saccharomyces
In experiment [1] the test system is active dry yeast Uvaferm CEG. The experiment can be described thus: Duration of fermentation of deficient synthetic must MS70-fa with different added nutrients (Example 3). Particulars: average of duplicates, control without addition 290. How it is done: 12 fermentations were carried out in parallel and in duplicate on a synthetic must MS70-fa such as described in example 1, and corresponding to a medium deficient in assimilable nitrogen (100 mg/l) and containing 200 g/l of fermentable sugars. The active dry yeast used is the commercial yeast Uvaferm CEG™ inoculated at a dosage of 20 g/hl. The yeast extract is the commercial extract Bacto-yeast extract ref. 0127-01-7 (DIFCO, USA). The vitamins and mineral salts are the standard products available from suppliers.
F1 and 2: Controls in which no yeast extract is added either into the rehydration medium of the yeast or into the fermentation medium. The control rehydration medium is the base medium: water with glucose added at 50 g/l.
F3: Fermentation carried out with the yeast CEG™ rehydrated in the presence of yeast extract (used at a dosage permitting a concentration of 30 g/hl in the must) in the rehydration medium.
F4: Fermentation carried out with the yeast CEG™ rehydrated in a control rehydration medium. The same yeast extract as for F3 is added at the start of alcoholic fermentation directly into the synthetic must MS70-fa in a dosage of 30 g/hl.
F6: Fermentation carried out with the yeast CEG™ rehydrated in a control rehydration medium. […]

Experiment [2] deals with active dry yeast Uvaferm PM. Nature of the experiment: Industrial fermentation of Airen white wine must in 100 hectolitre vats (Example 7). How it is done:
(§1) The medium M2 containing the composition C2 has been used to rehydrate the ADYs and culture a fermentation must of a white wine in industrial conditions in a cellar in the region of la Mancha in Spain.
(§2) Assimilable Nitrogen in the must: 225 mg/l (non-Deficient must)
(§3) Fermentations have been carried out in 100 hectolitre vats according to different forms, in order to determine the most favourable conditions. Two types of ADY have been used, on their own or in the presence of other substances jointly added to the musts to encourage fermentation. In particular the influence of diammonium phosphate and a fermentation activator, added to the fermentation medium, has been studied.
(§4) The active dry yeasts Uvaferm™ CEG (Lallemand, Canada) and Uvaferm™ PM (Lallemand, Canada) have been rehydrated with the aid of the medium M2 described in example 6. For each of the two yeasts, 4 tests have been carried out, by adding:
(§5) The fermentation activator used is the activator Fermaid™ (Lallemand, Canada).
(§6) The kinetic profile of these eight fermentations was followed by measuring the density of the must and at the level of the production of a secondary component of fermentation, i.e. acetate. Indeed, acetate is responsible for the volatile acidity of wines which should be minimised in order to obtain good gustative qualities.
(§7) The values presented in table 2 correspond to fermentation times in days for each form.
(§8) The values presented in table 3 correspond to the volatile acidity measured at the end of fermentation by the Duclaux-Gayon method, known to the person skilled in the art.

Experiment [3] deals with active dry yeast Uvaferm CEG. The description is as above. How it is done:
as §1, §2, §3, §4, §5, §6, §7, §8

Setting [4] is: Airen must, 225 mg/l assimilable nitrogen.
[5] abbreviates: at end of fermentation, Duclaux-Gayon method.

On to `N.N.O=P(O)(O)O` [Di-ammonia phosphate], for which the “fermentation time, in rehydration medium” value in experiment [1] (product added in rehydration medium) is 280 h. Besides, the “fermentation time, at start of fermentation” value in experiment [1] (product added to must at start of fermentation) was determined as 285 h.

Turning to `N.N.O=P(O)(O)O` [Test no. 1], the fermentation time in experiment [2] (setting [4]) was 8 days; in experiment [3] (setting [4]), 10 days. Further, the Volatile acidity came to 0.33 g/L in experiment [2] (setting [5]) and 0.48 g/L in experiment [3] (setting [5]).

The values are drawn from patent publication US20040213889A1, “Method for active dry yeast rehydration and rehydration medium” (priority 2001, published 2004).
